Laboratory results taken from PMC6458156, “Improved predictions of time-dependent drug-drug interactions by determination of cytosolic drug concentrations” (Scientific Reports, 2019).
Where two headings read alike, the source gives them in different places.

Key:
transporters = system: transporters; parameters: method as in earlier work; settings: cells wrapped over several lines are given as printed fragments; ref DIDB; cited from earlier work
CYP3A [1] = target: T1, CYP3A (Homo sapiens, UniProt P08684); settings: probe drugs midazolam and simvastatin, in vivo; ref University of Washington Drug Interaction Database; cited from earlier work
T1 sequence (P08684 2-503): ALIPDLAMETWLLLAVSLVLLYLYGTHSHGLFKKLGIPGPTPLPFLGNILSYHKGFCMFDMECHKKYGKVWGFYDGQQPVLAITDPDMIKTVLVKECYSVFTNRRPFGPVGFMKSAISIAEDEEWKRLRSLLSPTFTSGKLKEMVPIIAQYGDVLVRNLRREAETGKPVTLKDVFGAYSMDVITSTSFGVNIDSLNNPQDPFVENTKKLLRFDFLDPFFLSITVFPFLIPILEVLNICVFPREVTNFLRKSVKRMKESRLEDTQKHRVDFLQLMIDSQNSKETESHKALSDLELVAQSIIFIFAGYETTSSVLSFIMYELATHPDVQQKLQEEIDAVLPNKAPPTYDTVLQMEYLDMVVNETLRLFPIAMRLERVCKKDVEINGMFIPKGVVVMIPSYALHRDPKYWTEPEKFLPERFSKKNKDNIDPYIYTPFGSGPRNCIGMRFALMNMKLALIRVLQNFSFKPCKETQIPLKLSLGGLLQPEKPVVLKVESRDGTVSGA

CYP3A [2] = target: T1, CYP3A; assay: in vitro
human hepatocytes [3] = assay: Cytosolic drug accumulation ratio (Kpcyto) and cytosolic bioavailability (Fcyto) in human hepatocytes with chloroquine; type: in vitro ADME; settings: for Kpcyto: cellular drug accumulation ratio in the presence of chloroquine (100 µM, 45 min), 0.5 µM drug; for Fcyto: cytosolic bioavailability = fu,cell × Kpcyto; for Fcyto / Fic/Fcyto: human hepatocytes; for Kp compared with Kpcyto: absence vs presence of chloroquine, p ≤ 0.05 in Student’s t-test where called significant; for Fic/Fcyto: ratio of intracellular to cytosolic bioavailability
[4] = Intracellular drug accumulation ratio (Kp) and intracellular bioavailability (Fic) in cryopreserved human hepatocytes; type: in vitro ADME; settings: human, cryopreserved human hepatocytes in suspension; cellular drug accumulation ratio; 0.5 µM drug; no chloroquine; geometrical mean ± SD of triplicates
human hepatocytes [5] = assay: as above; type: in vitro ADME; settings: intracellular bioavailability = fu,cell × Kp; human hepatocytes
[6] = cited from earlier work; for ka: absorption rate constant, 35-40 (verapamil); for ka / Fa: ref 5,17 (crizotinib), 19-21 (erythromycin), 22-25 (imatinib), 20,32,33 (roxithromycin), 4,34 (telithromycin); for Cave,ss: average plasma concentration at steady-state; for Fa: fraction absorbed, 6,18 (diltiazem), 26-28 (nefazodone), 29,30 (nilotinib), 29,31 (pazopanib); for Cmax,ss: maximum plasma concentration at steady-state
[7] = Intracellular fraction of unbound drug (fu,cell), dialysis of human hepatocyte homogenate; type: in vitro ADME; settings: homogenate of cryopreserved human hepatocytes, geometrical mean ± SD of triplicates
[8] = Non-specific binding of drugs in human liver microsomes (fu,mic), rapid equilibrium dialysis; type: in vitro ADME; settings: unbound drug fraction in the microsomal mixture, inhibitor 1 µM, 37 °C
CYP3A [9] = target: T1, CYP3A; assay: in vitro; settings: microsomes, pH 7.4
[10] = blood-to-plasma ratio; Predicted within/obtained from Simcyp; ref Simcyp (Simcyp Limited, UK); cited from earlier work
CYP3A4 [11] = settings: midazolam; cited from earlier work
MATE2-K = settings: read-out: IC50 (MATE2-K); ref DIDB; cited from earlier work
CYP2D6 = system: CYP2D6; parameters: method as in earlier work; settings: in HLM; ref DIDB; cited from earlier work
P-gp = settings: read-out: Ki (P-gp); ref DIDB; cited from earlier work
OATP1A2 = settings: read-out: IC50 (OATP1A2); ref DIDB; cited from earlier work
OCT1 = settings: read-out: IC50 (OCT1); ref DIDB; cited from earlier work
OCT2 = settings: read-out: IC50 (OCT2); ref DIDB; cited from earlier work
CYP3A4 [12] = system: CYP3A4; parameters: method as in earlier work; settings: ref DIDB; cited from earlier work
MATE1 = settings: read-out: IC50 (MATE1); ref DIDB; cited from earlier work
[13] = pH 7.4, KI, inactivation constant, HLM 0.5 mg/ml preincubation 0-30 min, midazolam 20 µM, mean ± SD of triplicates
[14] = pH 7.4, KI,u, calculated as fu,mic at 0.5 mg/ml × KI
[15] = HLM 0.1 mg/ml, read-out: fu,mic at 0.1 mg/ml
[16] = HLM 0.5 mg/ml, read-out: fu,mic at 0.5 mg/ml

C[C@@H](Oc1cc(-c2cnn(C3CCNCC3)c2)cnc1N)c1c(Cl)ccc(F)c1Cl [Crizotinib]
Substrate of other transporters in vitro (transporters): OATP1B1/3, 2B1 | class of CYP3A inhibitor by increase in AUC of the probe drug (CYP3A [1]): medium (medium inhibitors causing a ≥2 but <5-fold increase) | Ki (CYP3A [2]; microsomes, pH 7.4): 0.09 µM | KI (inactivation) (CYP3A [2]; [13]): 0.775 ± 0.13 µM | KI (inactivation) (CYP3A [2]; [14]): 0.091 µM | Kpcyto (human hepatocytes [3]): 70 ± 0.4 | Fcyto (human hepatocytes [3]): 0.041 ± 0.005 | Kp at 0.5 µM [4]: 75 ± 0.11 | Fic (human hepatocytes [5]): 0.044 ± 0.005 | ka [6]: 0.817 h⁻¹ | Cave,ss ([6]; 100 mg qd): 45 ng/mL | Cave,ss ([6]; 250 mg bid): 129 ng/mL | Cave,ss ([6]; 300 mg bid): 169 ng/mL | Fa [6]: 0.4 | Cmax,ss ([6]; 100 mg qd): 86 ng/mL | Cmax,ss ([6]; 250 mg bid): 327 ng/mL | Cmax,ss ([6]; 300 mg bid): 420 ng/mL | fraction unbound at 4 h [7]: 0.0006 ± 0.0001 | fraction unbound at 4 h, 1 µM [8, 15]: 0.505 | fraction unbound at 4 h, 1 µM [8, 16]: 0.118 | IC50 at 5 min (CYP3A [9]): > 100 µM | Ki at 5 min (CYP3A [9]): 97.4 µM

CC[C@H]1OC(=O)[C@H](C)C(=O)[C@H](C)[C@@H](O[C@@H]2O[C@H](C)C[C@H](N(C)C)[C@H]2O)[C@](C)(OC)C[C@@H](C)C(=O)[C@H](C)[C@H]2N(CCCCn3cnc(-c4cccnc4)c3)C(=O)O[C@]12C [Telithromycin]
class of CYP3A inhibitor by increase in AUC of the probe drug (CYP3A [1]): strong (strong inhibitors of CYP3A, causing a ≥5-fold increase in the area under the concentration-time curve (AUC) of the probe drug) | KI (inactivation) (CYP3A [2]; [13]): 1.49 ± 0.19 µM | KI (inactivation) (CYP3A [2]; [14]): 0.979 µM | Kp compared with Kpcyto (human hepatocytes [3]): comparable Kp and Kpcyto | Kpcyto (human hepatocytes [3]): 7.24 ± 0.8 | Fcyto (human hepatocytes [3]): 0.27 ± 0.03 | Fic/Fcyto (human hepatocytes [3]): 0.92 | Kp at 0.5 µM [4]: 6.6 ± 0.6 | Fic (human hepatocytes [5]): 0.25 ± 0.03 | ka [6]: 0.95 h⁻¹ | Cave,ss ([6]; 800 mg qd): 425 ng/mL | Fa [6]: 0.92 | Cmax,ss ([6]; 800 mg qd): 1,840 ng/ml | fraction unbound at 4 h [7]: 0.0371 ± 0.0016 | fraction unbound at 4 h, 1 µM [8, 15]: 0.962 | fraction unbound at 4 h, 1 µM [8, 16]: 0.657 | IC50 at 5 min (CYP3A [9]): 14.1 ± 3.5 µM | Ki at 5 min (CYP3A [9]): 6.77 µM

CC[C@H]1OC(=O)[C@H](C)[C@@H](O[C@H]2C[C@@](C)(OC)[C@@H](O)[C@H](C)O2)[C@H](C)[C@@H](O[C@@H]2O[C@H](C)C[C@H](N(C)C)[C@H]2O)[C@](C)(O)C[C@@H](C)CN(C)[C@H](C)[C@@H](O)[C@]1(C)O [Azithromycin]
fraction unbound at 4 h, 1 µM [8, 15]: 0.766 | fraction unbound at 4 h, 1 µM [8, 16]: 0.765

CCc1nn(CCCN2CCN(c3cccc(Cl)c3)CC2)c(=O)n1CCOc1ccccc1 [Nefazodone]
Kpcyto (human hepatocytes [3]): 11 ± 1.6 | Fcyto (human hepatocytes [3]): 0.021 ± 0.003 | Fic/Fcyto (human hepatocytes [3]): 0.74 | Kp at 0.5 µM [4]: 8.1 ± 1.3 | Fic (human hepatocytes [5]): 0.015 ± 0.002 | Cave,ss ([6]; 200 mg bid): 582 ng/mL | Fa [6]: 1.00 | Cmax,ss ([6]; 200 mg bid): 1,400 ng/ml | fraction unbound at 4 h [7]: 0.0019 ± 0.0001 | fraction unbound at 4 h, 1 µM [8, 15]: 0.187 | fraction unbound at 4 h, 1 µM [8, 16]: 0.18 | IC50 at 5 min (CYP3A [9]): 2.59 ± 0.22 µM | Ki at 5 min (CYP3A [9]): 0.242 µM

CC[C@H]1OC(=O)[C@H](C)[C@@H](O[C@H]2C[C@@](C)(OC)[C@@H](O)[C@H](C)O2)[C@H](C)[C@@H](O[C@@H]2O[C@H](C)C[C@H](N(C)C)[C@H]2O)[C@](C)(O)C[C@@H](C)/C(=N\OCOCCOC)[C@H](C)[C@@H](O)[C@]1(C)O [Roxithromycin]
class of CYP3A inhibitor by increase in AUC of the probe drug (CYP3A [1]): weak (weak inhibitors causing a ≥1.25 but <2-fold increase) | KI (inactivation) (CYP3A [2]; [13]): 31.4 ± 16.5 µM | KI (inactivation) (CYP3A [2]; [14]): 19.2 µM | Kp compared with Kpcyto (human hepatocytes [3]): significantly larger | Kpcyto (human hepatocytes [3]): 3.3 ± 0.75 | Fcyto (human hepatocytes [3]): 0.08 ± 0.02 | Fic/Fcyto (human hepatocytes [3]): 1.61 | Kp at 0.5 µM [4]: 5.4 ± 0.3 | Fic (human hepatocytes [5]): 0.13 ± 0.01 | B/P [10]: 0.70 | ka [6]: 4.96 h⁻¹ | Cave,ss ([6]; 300 mg qd): 5,413 ng/ml | Fa [6]: 0.86 | Cmax,ss ([6]; 300 mg qd): 10,900 ng/ml | fraction unbound at 4 h [7]: 0.0241 ± 0.0004 | fraction unbound at 4 h, 1 µM [8, 15]: 0.637 | fraction unbound at 4 h, 1 µM [8, 16]: 0.612 | IC50 at 5 min (CYP3A [9]): 82.4 ± 44.9 µM | Ki at 5 min (CYP3A [9]): 26.2 µM

Cc1ccc(NC(=O)c2ccc(CN3CCN(C)CC3)cc2)cc1Nc1nccc(-c2cccnc2)n1 [Imatinib]
Cmax,ss ([6]; 400 mg qd): 2,596 ng/ml

Cc1cn(-c2cc(NC(=O)c3ccc(C)c(Nc4nccc(-c5cccnc5)n4)c3)cc(C(F)(F)F)c2)cn1 [Nilotinib]
class of CYP3A inhibitor by increase in AUC of the probe drug (CYP3A [1]): medium (medium inhibitors causing a ≥2 but <5-fold increase) | KI (inactivation) (CYP3A [2]; [13]): 1.29 ± 0.23 µM | KI (inactivation) (CYP3A [2]; [14]): 0.156 µM | Kpcyto (human hepatocytes [3]): 51 ± 9 | Fcyto (human hepatocytes [3]): 0.008 ± 0.001 | Fic (human hepatocytes [5]): 0.022 ± 0.001 | Fa [6]: 0.30 | fraction unbound at 4 h [7]: 0.0002 | fraction unbound at 4 h, 1 µM [8, 15]: 0.195 | fraction unbound at 4 h, 1 µM [8, 16]: 0.121 | IC50 at 5 min (CYP3A [9]): 1.31 ± 0.3 µM | Ki at 5 min (CYP3A [9]): 0.128 µM

CC[C@H]1OC(=O)[C@H](C)[C@@H](O[C@H]2C[C@@](C)(OC)[C@@H](O)[C@H](C)O2)[C@H](C)[C@@H](O[C@@H]2O[C@H](C)C[C@H](N(C)C)[C@H]2O)[C@](C)(O)C[C@@H](C)C(=O)[C@H](C)[C@@H](O)[C@]1(C)O [Erythromycin]
Kpcyto (human hepatocytes [3]): 1.2 ± 4.33 | Fcyto (human hepatocytes [3]): 0.052 ± 0.192 | Kp at 0.5 µM [4]: 1.5 ± 2.4 | Fic (human hepatocytes [5]): 0.066 ± 0.104 | ka [6]: 0.6 h⁻¹ | Cave,ss ([6]; 500 mg tid): 361 ng/mL | Fa [6]: 0.65 | Cmax,ss ([6]; 500 mg tid): 821 ng/mL | fraction unbound at 4 h [7]: 0.0444 ± 0.0013 | fraction unbound at 4 h, 1 µM [8, 15]: 0.64 | fraction unbound at 4 h, 1 µM [8, 16]: 0.586

Cc1ncc2n1-c1ccc(Cl)cc1C(c1ccccc1F)=NC2 [midazolam, Midazolam]
fraction metabolized by CYP3A4 (fm) (CYP3A4 [11]): 0.94 | fraction of drug escaping CYP3A4-mediated gut metabolism (FG) (CYP3A4 [11]): 0.51

CCN(CC)CCCC(C)Nc1ccnc2cc(Cl)ccc12 (stereo not shown) [Chloroquine]
IC50 (MATE2-K): 4 µM | IC50 (CYP2D6): ~50 µM | Ki (P-gp): […] | IC50 (OATP1A2): […] | IC50 (OCT1): 13 µM | IC50 (OCT2): ~100 µM | IC50 (CYP3A4 [12]): 150 µM | IC50 (MATE1): 1.5 µM

Cc1ccc(Nc2nccc(N(C)c3ccc4c(C)n(C)nc4c3)n2)cc1S(N)(=O)=O [Pazopanib]
Substrate of other transporters in vitro (transporters): OATP1B1/3, OCT1 | Cave,ss ([6]; 800 mg qd): 30,971 ng/ml | Fa [6]: 0.80

COc1ccc([C@@H]2Sc3ccccc3N(CCN(C)C)C(=O)[C@@H]2OC(C)=O)cc1 [Diltiazem]
Cmax,ss ([6]; 60 mg tid): 70 ng/mL | Cmax,ss ([6]; 240 mg qd): 166 ng/mL | fraction unbound at 4 h, 1 µM [8, 15]: 0.792 | fraction unbound at 4 h, 1 µM [8, 16]: 0.708
